From patent publication US9012166B2, “Method for assaying histone methylation enzyme activity” (Kyushu Institute of Technology, priority 2010, dated 2015)

System: trypsin
Assay: LC/MS analysis of reaction between substrate compound and trypsin
Assay type: biochemical
Conditions: Example 3; 37° C., 15 minutes
Description: Distilled water was added to 10 μL of 2×HMT buffer (100 mM Tris-HCl (pH 8.5), 20 mM MgCl2, 40 mM KCl, 20 mM 2-mercaptoethanol, 500 mM sucrose) and 1 μL of a BocLysMCA solution to adjust the total volume to 20 μL. To the resultant solution was added 30 μL of a peptidase solution (20 mg/mL trypsin or 20 mAU/mL lysyl endopeptidase), which was then mixed and incubated at 37° C. for 15 minutes. Then, the solution was applied to a liquid chromatograph mass spectrometer (LC/MS) for analysis. Analysis was performed by the same method as that for the above analysis except for using monomethylated BocLysMCA (i.e., “BocLys(Me)MCA”), dimethylated BocLysMCA (i.e., “BocLys(Me)2MCA”), or trimethylated BocLysMCA (i.e., “BocLys(Me)3MCA”) in place of BocLysMCA. Analysis was also carried out by the same method except for using, in place of the above-described peptidase solution, an equal volume of distilled water.

## Cc1cc(=O)oc2cc(NC(=O)C(CCCCN)NC(=O)OC(C)(C)C)ccc12 (stereo not shown) [BocLysMCA, Boc-K-MCA]
  hydrolysis by trypsin (LC/MS peaks): most BocLysMCA was hydrolyzed
